{
  "source": "patent US20180008593A1",
  "about": "(Purdue Pharma L.P., priority 2005, published 2018)",
  "key": {"[1]": {"system": "experimental human pain model, healthy volunteers", "assay": "Pain-related evoked potentials (EEG) after CO2 stimulation of the nasal mucosa, Example 4", "type": "in vivo", "procedure": "This was a single site, single dose, double blind, placebo-controlled, 5-treatment, 5-period, randomized, balanced crossover study in healthy adult male and female subjects. […] Subjects were allocated each of the 5 treatments described in the synopsis according to a random allocation schedule (RAS). There was a 7-day washout period\nAnalgesic effects were assessed by means of an experimental human pain model based on the chemosomatosensory pain-related cortical potentials (CSSEPs) and pain-ratings after specific phasic nociceptive stimulation of the nasal mucosa with gaseous CO2. In addition, intensity estimates of tonic pain produced by stimulation of the nasal mucosa with dry air at controlled flow and temperature were employed.\nWithin the present pain model, the following were used as indicators of analgesia: • post-treatment decrease in pain-ratings and/or • post-treatment decrease in amplitudes of pain-related evoked potentials and/or • post-treatment increase in latencies of pain-related evoked potentials, relative to the pretreatment values.\n1. Base-to-peak amplitudes P1, N1 and P2, peak-to-peak amplitudes P1 N1 and N1P2 of pain related evoked potentials 2. Latencies P1, N1 and P2 of pain-related evoked potentials 3. Intensity estimates of phasic (C02-) pain 4. Intensity estimates of tonic pain\nIn the first 20 minutes, 40 phasic CO2-stimuli were applied (20 stimuli at a concentration of 70% and 20 at a concentration of 60%, interstimulus interval 30 s). In response to these stimuli, pain-related potentials and subjective intensity estimates were recorded.\nCO2-stimuli were mixed in a constantly flowing air stream with controlled temperature (36.5° C.) and humidity (80% relative humidity) presented to the left nostril (stimulus duration 200 ms, interstimulus interval 30 s). […] During intervals between phasic stimuli subjects performed a simple tracking task on a video screen. Using a joystick, they had to keep a small square inside a larger one that randomly moved around.\nThe EEG was recorded from 5 positions of the international 10/20 system (Cz, C3, C4, Fz and Pz; see FIG. 40) referenced to linked earlobes (A1+A2). Possible eye blink artifacts were monitored from an additional site (Fp2/A1+A2). Stimulus linked EEG segments of 2040 ms duration were sampled with a frequency of 250 Hz (band pass 0.2-30 Hz, pre-stimulus period 512 ms). The recorded analog EEG segments were then converted to digital and filed electronically. The average value for each recording position was separately calculated, discarding all eye blink contaminated records. By this procedure pain-related evoked potentials were obtained in response to the painful CO2 stimuli. Base to peak amplitudes P1, N1 and P2, the peak to peak amplitudes P1 N1 and N1 P2 and the latencies of P1, […] and P2 were measured. Wherever the time of measurement was used in the data analysis, the mid-time of a session was taken. FIG. 40 presents the components of the pain-related evoked potentials."}, "[2]": {"system": "oxycodone-pump and vehicle-pump implanted rats", "assay": "Oxycodone tolerance: tail withdrawal dose response in pump-implanted rats, Example 5", "type": "in vivo, rat", "procedure": "Animals were randomized and acclimated for one week as described in Section 3.1. Vehicle control pumps contained sterile filtered isotonic saline. Alzet 2ML 1 osmotic mini pumps were loaded with oxycodone solution as described in “Alzet Osmotic Minipumps: Technical Information Manual” from DURECT Corp., Cupertino, Calif. The loaded pumps were primed by placing them in sterile isotonic saline at 37° […] for 3-h before implanting them in the rats. The rats were briefly anesthetized with isoflurane USP (Henry Schein, Inc. Melville, N.Y., U.S.A.) for implantation of 2ML 1 osmotic minipumps that deliver at a rate […]. After induction of anesthesia (as noted by the absence of the righting reflex and foot pinch response). Sterile scissors were used to make a 1.5 cm incision that was expanded under the skin with hemostats in a caudal direction to open the subcutaneous space for the pump. A sterile 2ML 1 pump was then inserted under the skin and moved to the dorsum. The rats were returned to their home cages and monitored until they completely recovered from anesthesia. Pump delivery began at 4-h (DU REGT Corp.) allowing the rats 1-h to recover from the anesthesia. Therefore, time zero began 1-h after implantation of the pumps. The rats were monitored daily for signs of distress, drug toxicity, or problems with the surgical site.\nIf the value was below 50% then the predicted level of tolerance was greater than 10-fold. The infusion dose that elicited approximately a 50% MPE with the challenge was selected as the 10-fold model of tolerance.\nAfter this, the individual groups (8/group) were challenged with increasing doses of oxycodone for construction of a dose-response curve for calculation of the ED80 value. Potency-ratio determinations were made between the oxycodone-pump and vehicle-pump groups."}, "[3]": {"system": "patients with severe chronic pain", "assay": "Incidence and duration of diarrhea and discontinuations due to diarrhea, Example 1", "conditions": "naloxone 0 mg"}, "male Sprague-Dawley rats": {"system": "male Sprague-Dawley rats", "assay": "51° C. warm-water tail withdrawal test, i.v. oxycodone in opioid naive rats, Example 5"}, "[4]": {"conditions": "0.3 mg/kg oxycodone free-base i.v."}},
  "data": [
    {"smiles": "COc1ccc2c3c1O[C@H]1C(=O)CC[C@@]4(O)[C@@H](C2)N(C)CC[C@]314", "note": "[Oxycodone, oxycodone]", "values": [
      {"measurement": "Magnitude of reduction of amplitude P1N1 at C4 compared to baseline", "setting": "[1]; 60% CO2, 20 mg oxycodone", "value": 35.3, "unit": "%"},
      {"measurement": "Amplitude P1N1 of pain-related evoked potentials", "setting": "[1]; 60% CO2, recording position C4", "value": "significant compared to placebo"},
      {"measurement": "Latency P1 of pain-related evoked potentials", "setting": "[1]; 60% CO2, recording position C4", "value": "significant compared to placebo"},
      {"measurement": "Latency P1 of pain-related evoked potentials", "setting": "[1]; 60% CO2, recording position Pz", "value": "significant compared to placebo"},
      {"measurement": "Latency P1 of pain-related evoked potentials", "setting": "[1]; 70% CO2, recording position C3", "value": "significant compared to placebo"},
      {"measurement": "Latency P1 of pain-related evoked potentials", "setting": "[1]; 70% CO2, recording position Cz", "value": "significant compared to placebo"},
      {"measurement": "Latency P2 of pain-related evoked potentials", "setting": "[1]; 70% CO2, recording position Cz", "value": "significant compared to placebo"},
      {"measurement": "Latency P1 of pain-related evoked potentials", "setting": "[1]; 70% CO2, recording position Fz", "value": "significant compared to placebo"},
      {"measurement": "Latency P1 of pain-related evoked potentials", "setting": "[1]; 70% CO2, recording position Pz", "value": "significant compared to placebo"},
      {"measurement": "Latency P2 of pain-related evoked potentials", "setting": "[1]; 70% CO2, recording position Pz", "value": "significant compared to placebo"},
      {"measurement": "Rightward shift in the oxycodone dose-response curve (tolerance)", "setting": "[2]; 7-day oxycodone infusion […] vs vehicle pump", "value": 8.5, "unit": "fold"},
      {"measurement": "ED50", "setting": "[2]; Rattus norvegicus, iv, i.v. oxycodone, vehicle-pump implanted rats, read-out: ED50 value (antinociception)", "value": 0.32, "unit": "mg/kg"},
      {"measurement": "% MPE on challenge with […] oxycodone", "setting": "[2]; after s.c. oxycodone infusion […] for 7 days", "value": "~50", "unit": "% MPE"},
      {"measurement": "Discontinuations due to Diarrhea, n/N", "setting": "[3]; daily oxycodone 40 mg", "value": "0/17"},
      {"measurement": "Incidence of Discontinuations due to Diarrhea", "setting": "[3]; daily oxycodone 40 mg", "value": "(0.0%)"},
      {"measurement": "Discontinuations due to Diarrhea, n/N", "setting": "[3]; daily oxycodone 60 mg", "value": "0/17"},
      {"measurement": "Incidence of Discontinuations due to Diarrhea", "setting": "[3]; daily oxycodone 60 mg", "value": "(0.0%)"},
      {"measurement": "Discontinuations due to Diarrhea, n/N", "setting": "[3]; daily oxycodone 80 mg", "value": "0/16"},
      {"measurement": "Incidence of Discontinuations due to Diarrhea", "setting": "[3]; daily oxycodone 80 mg", "value": "(0.0%)"},
      {"measurement": "First test point at which antinociception was present", "setting": "male Sprague-Dawley rats; [4]", "value": 2.5, "unit": "min"},
      {"measurement": "Obvious signs (sedation, motor control, respiration, toxicity)", "setting": "male Sprague-Dawley rats; [4]", "value": "no obvious signs were noted"},
      {"measurement": "Time antinociception stayed significantly above baseline latencies", "setting": "male Sprague-Dawley rats; [4]", "value": 40, "unit": "min"},
      {"measurement": "Peak time of antinociception", "setting": "male Sprague-Dawley rats; 0.3 mg/kg oxycodone free-base i.v., 51° C. tail withdrawal", "value": 10, "unit": "min"},
      {"measurement": "ED80 value (antinociception)", "setting": "male Sprague-Dawley rats; oxycodone free-base i.v., tested at 10-min", "value": 0.41, "unit": "mg/kg"}
    ]}
  ]
}
